In US20240067931A1, “METHODS AND COMPOSITIONS FOR SMALL MOLECULE BASED PANCREATIC BETA CELL INDUCTION” (Trailhead Biosystems Inc., priority 2022, published 2024):
Ends that are not written are not given here.

Key:
Assay type in all cases: cell-based, human
INS = experiment: HD-DoE screening for optimal de novo beta cell induction (stage 3 cultures, 3 day perturbation), INS induction
Experimental: FIG. 18 HD-DoE screening for optimal de novo beta cell induction. Culture of the iPSC cell line CR01 were differentiated to a DFE state for 3 days. These cultures were then incubated in the presence of stage 2 media for an additional 3 days. These cultures were then incubated for an additional 5 days in the presence of GSI-XX and A8301 followed by a 3 day incubation in the presence of a perturbation matrix composed of the compounds indicated in the different panels. This was performed 3 separate times (once for each of the 3 panels). These HD-DoE experiments were then analyzed using MODDE software for maximal induction of insulin. The predicted results are shown.
FIG. 20 HD-DoE screening for optimal de novo beta cell induction. Cultures of the iPSC cell line CR01 were differentiated to a DFE state for 3 days. These cultures were then incubated in the presence of stage 2 media for an additional 3 days. These cultures were then incubated for an additional 5 days in the presence of GSI-XX and A8301 followed by a 3 day incubation in the presence of a perturbation matrix composed of the compounds indicated in the different panels. This was performed 4 separate times (once for each of the 4 panels). These HD-DoE experiments were then analyzed using MODDE software for the maximal induction of Insulin. The predicted results are shown.
(§1) FIGS. 22-25. Dynamic profiling of endocrine sub-type regulation. One of the HD-DoE experiments shown in Example 19 was analyzed using MODDE software and dynamic profiling of the endocrine products GCG, SST and INS are shown.
To define factors contributing to the activation of INS, a series of HD-DoE perturbations were performed using factors chosen to target different aspects of beta cell biology.
To define factors contributing to the activation of INS, a series HD-DoE perturbations were performed using factors chosen to target different aspects of beta cell biology.

[1] = system: GCG, SST, PDX1, PAX4, MAFA and NKX2.2; experiment: HD-DoE stage 3 screening, heat map and dynamic profiling of endocrine and beta cell genes; details: heat maps FIG. 19 and FIG. 21
Excerpt: FIG. 19 Heat map showing descending factor contributions for the induction of INS. The three HD-DoE experiments shown in Example 17 were used for modeling the maximal expression of several other genes, including GCG, SST, PDX1, PAX4, MAFA and NKX2.2, which are indicative of endocrine cell types with a focus on pancreatic beta cells as indicated at the top of the heat map. The relative factor contributions for the activation of these different genes were then used to generate a secondary heat map representative of the gene induction logic and then ranked according to the compound's ability to induce INS. Dark blue colors indicate a high inductive capacity, while dark red colors indicative of a highly repressive capacity for activation of the genes are shown.
FIG. 21 Heat map showing descending factor contributions for the induction of INS. The four HD-DoE experiments shown in Example 19 were used for modeling the maximal expression of several other genes. These genes were GCG, SST, PDX1, PAX4, MAFA and NKX2.2. These genes are all indicative of endocrine cell types with a focus on the beta cell as indicated at the top of the heatmap. The relative factor contribution for the activation of these different genes were then used to generate a secondary heat map representative of these genes induction logic and then ranked order according to the compounds ability to induce INS. Dark blue indicates high inductive capacity, while dark red is indicative of a highly repressive effect for the activation of the genes shown.
as §1
To ascertain which factors could potentially favor the beta cell over other endocrine cell types, optimizers for markers of the other endocrine cell types and beta cell specific markers were compared. The relative factor contribution from the different optimizers were compared.
Optimizers for the main pancreatic endocrine hormones and beta cell-specific transcription factors were generated to compare their contribution factors for this series of HD-DoE. Compounds that could selectively favor the differentiation of the beta cell over that of the alpha and delta cells were identified in this manner.

de novo beta cells = experiment: Immunohistochemical validation of de novo beta cells, day 16 culture (PDX1, C-peptide); details: added to stage 3 media, FIG. 26
Experimental: FIG. 26 Immunohistochemical validation of the generation of the de novo beta cells. Cultures of the iPSC cell line CR01 was differentiated to a DFE state for 3 days. These cultures were then incubated in the presence of stage 2 media for an additional 3 days. These cultures were then incubated for an additional 10 days in the presence of quercetin, GSI-XX and A8301. The cultures were then fixed using formalin and stained for antibodies that recognize the proteins PDX1 and CPEP.
C-peptide staining was performed to distinguish between de novo generation of beta cells and the possible absorption of insulin from the culture media.

HNF1b = experiment: HD-DoE perturbation matrix on iPSC line CR01, optimization of HNF1b activation (MODDE modelling)
Excerpt: (§2) FIG. 2 Optimization of HNF1B from the iPSC-line CR01. A culture of the iPSC cell line Cr01 was exposed to an HD-DoE perturbation matrix composed of compounds regulating the BMP, retinoid, TGF-β and FGF pathways. Pathways previously shown to be involved in the differentiation of dorsal foregut endoderm were utilized in this analysis. MODDE software was used to predict the optimal condition for maximizing HNF1b activation. Predicted factor additives for this optimization and the relative expression under these conditions for the genes measured are shown.
(§3) To assay the efficacy of a potentially clinical grade iPSC line the NCRM1 cell line was chosen. An HD-DoE based optimization was used to validate the HNF1b and FOXA2 optimizers for this cell line. The HD-DOE method was applied with the intent to find conditions for induction of endoderm-expressed genes, directly from the pluripotent stem cell state. This example utilizes a method previously described by Bukys et al. (2020) Iscience 23:101346. The method employs computerized design geometries to simultaneously test multiple process inputs and offers mathematical modeling of a deep effector/response space. The method allows for finding combinatorial signaling inputs that control a complex process, such as dauring cell differentiation. It allows testing of multiple plausible critical process parameters, as such parameters impact output responses, such as gene expression. Because gene expression provides hallmark features of the phenotype of, for example, a human cell, the method can be applied to identify, and understand, which signaling pathways control cell fate.
(§4) To develop a cell culture recipe for each stage, the impact of agonists and antagonists of multiple signaling pathways (herein called effectors) on the expression of pre-selected genes was tested and modeled. The impact of each effector on gene expression level is defined by a parameter called factor contribution that is calculated for each effector during the modeling. These effectors are small molecules or proteins that are commonly used during stepwise differentiation of stem cells to specific fates. Choice of the effectors were based on current literature on differentiation of stem cells to endoderm progenitors.
(§5) In both optimizations, it was shown that BMP pathway inhibition was the most crucial component of the optimization with factor contribution factors of 31.26 and 31.11 for LDN193189 in both the optimization of HNF1b (FIG. 2) and FOXA2 (FIG. 3), respectively. While MEK pathway inhibition with PD0325901 was critical for both HNF1b and FOXA2 optimization (factor contributions of 15.01 and 29.01, respectively), FOXA2 activation was more dependent on MEK inhibition. The other two pathways that were determined to be crucial for controlling DFE activation were retinoid signaling and TGF-β pathway inhibition. These two pathways had differential effects on FOXA2 and HNF1b.

FOXA2 [2] = experiment: HD-DoE perturbation matrix on iPSC line CR01, optimization of FOXA2 activation (MODDE modelling)
Excerpt: as §2, with “FIG. 3” for “FIG. 2”, “of FOXA2” for “of HNF1B”, “foregut endoderm.” for “foregut endoderm were utilized in this analysis.”, “maximizing FOXA2” for “maximizing HNF1b”, “for all” for “for the”
as §3, §4, §5

FOXA2 [3] = experiment: Immunohistochemical staining of iPSC (CR01) cultures after three days in additive combinations; details: added to RA and LDN, FIG. 9
Excerpt: FIG. 9 Achieving optimal FOXA2 expression. IPSC (CR01) cultures were exposed to media containing different combination of the additive retinoic acid, LDN193189, A8301 and/or PD0325 as indicated on the left side of the stainings. After three days, cultures were fixed and subjected to immunohistochemical staining for the protein antigens of FOXA2 and HNF1b.

PDX1 = experiment: HD-DoE perturbation matrix on DFE culture, modelling for maximal PDX1 induction
Excerpt: FIG. 11 Modelling for maximal PDX1 induction. Cultures of the iPSC cell line Cr01 was differentiated to a DFE state and then subjected to an HD-DoE perturbation matrix composed of the compounds indicated in the figure. MODDE software was used to predict the optimal condition for maximizing PDX1 activation. Predicted factor additives for this optimization and the relative expression under these conditions for the genes measured are shown.
FIG. 12 Coefficient plots show main effectors for pancreatic progenitor generation from a DFE precursor. Coefficients for the HD-DoE design shown in Example 9 are shown for PDX1 and PTF1A. The co-expression of these two genes is indicative of a pancreatic field.
To determine the best way for inducing a pancreatic fate from a DFE progenitor, a subsequent HD-DoE analysis was performed. Exposing a DFE culture to a perturbation matrix composed of all previously identified effectors shown to have a positive effect on PDX1 activation was used to define optimal conditions for PDX1 induction.

INS (beta cell marker) = experiment: HD-DoE on DFE culture, dynamic profiling of endocrine sub-type markers: INS; details: PDX1 optimizer, dynamic profiling FIG. 14
Excerpt: FIG. 14 Dynamic profiling exploring endocrine cell sub-types. IPSC cultures were differentiated to DFE cultures and then subjected a HD-DoE matrix as outlined in Example 10. MODDE software was used to display the dynamic profiles of GCG, INS and SST, which provide a representable characterization of the different pancreatic endocrine subtypes corresponding to alpha, beta, and delta cells, respectively.

[4] = system: iPSC derivatives (insulin secreting cells); experiment: GSIS assay of bioreactor produced iPSC derivatives with cAMP agonists; details: FIG. 39
Experimental: FIG. 39. Functionality of bioreactor produced insulin secreting cells occurs through cAMP agonism.
A glucose stimulated insulin secretion assay was performed to evaluate the functional maturity of the de novo beta cells generated. Assay samples had growth media removed and were washed once with PBS to remove any trace of media that may have been previously conditioned with secreted C-PEP. All samples were then incubated in the presence of basal media at 37 degrees Celsius for 15 minutes. Basal media consisted of RPMI containing 3 mM glucose. This media was then changed to either media supplemented with 17.5 mM glucose or 30 mM KCl and incubated for an additional 15 minutes.
Fully mature beta cells respond to incretins such as GLP1 through a cAMP mediated response. The iPSC derivatives are non-responsive to both GLP1 or a commonly used agonist of the GLP1 pathway EX4. It was shown that the receptor for these incretins (GLPR1) had very low expression in the iPSC-derivatives (FIG. 40). The rate of insulin secretion was also directly linked to the rate of mitochondrial respiration, as fully mature beta cells lack LDHA expression, making them only capable of metabolizing glucose through mitochondria respiration.

## O=c1c(O)c(-c2ccc(O)c(O)c2)oc2cc(O)cc(O)c12 [quercetin]
INS; Example 17, three HD-DoE panels, FIG. 18
  contribution factor, activation of INS: 15.6
[1]
  effect on beta cell specific transcription factors / all genes optimized: beneficial for all genes optimized
De novo beta cells
  endocrine conversion, de novo beta cell generation (immunohistochemical analysis): increased overall endocrine conversion

## Cc1cccc(-c2nn(C(=S)Nc3ccccc3)cc2-c2ccnc3ccccc23)n1 [A8301]
HNF1b; iPSC line CR01, HD-DoE, FIG. 2
  correlation with HNF1b activation: negative correlation
  factor contribution, optimization of HNF1b: 3.02
FOXA2 [2]; iPSC line CR01, HD-DoE, FIG. 3
  correlation with FOXA2 activation: positive correlation
  factor contribution, optimization of FOXA2: 17.72
FOXA2 [3]
  FOXA2 activation (immunohistochemical analysis): increased FOXA2 activation over RA and LDN alone
INS; heat map FIG. 21, dynamic profiling FIGS. 22-25
  effect on INS induction: positive effect on INS induction, though with far less contribution

## Cc1c(C)c(NCC(=O)N(C)C2CCN(Cc3ccc(C(N)=O)cc3)CC2)c(C)c(C)c1N [SUN11602]
PDX1; DFE culture, HD-DoE, FIG. 11
  factor contribution, PDX1 activation: 4.7
INS (beta cell marker)
  effect on INS activation: slightly negative effect

## O=C(NOC[C@H](O)CO)c1ccc(F)c(F)c1Nc1ccc(I)cc1F [PD0325901]
HNF1b; iPSC line CR01, HD-DoE, FIG. 2
  factor contribution, optimization of HNF1b: 15.01
FOXA2 [2]; iPSC line CR01, HD-DoE, FIG. 3
  factor contribution, optimization of FOXA2: 29.01
FOXA2 [3]
  FOXA2 activation (immunohistochemical analysis): increased FOXA2 activation over RA and LDN alone
PDX1; from DFE, FIG. 12
  activation of the pancreatic field (PTF1A and PDX1), coefficient plots: most critical to control

## c1ccc2c(-c3cnn4cc(-c5ccc(N6CCNCC6)cc5)cnc34)ccnc2c1 [LDN193189]
HNF1b; dynamic profiling, FIG. 5
  effect on HNF1b expression: crucial
HNF1b; iPSC line CR01, HD-DoE, FIG. 2
  factor contribution, optimization of HNF1b: 31.26
FOXA2 [2]; dynamic profiling, FIG. 5
  effect on FOXA2 expression: crucial
FOXA2 [2]; iPSC line CR01, HD-DoE, FIG. 3
  factor contribution, optimization of FOXA2: 31.11

## GLP1: incretin, cAMP agonist (HAEGTFTSDVSSYLEGQAAKEFIAWLVKGR; ends and bridges not checked; UniProt P01275 98-127, looked up)
[4]
  increase in insulin secretion in GSIS assay: did not occur
